In BindingDB's records for patent US20240043470 (Cornell University, 2024):

Tests used:
[1] = biological target: T1, Proteasome subunit beta type-5 (Homo sapiens, UniProt P28074); test: IC50 Determination
T1 sequence (P28074 whole entry): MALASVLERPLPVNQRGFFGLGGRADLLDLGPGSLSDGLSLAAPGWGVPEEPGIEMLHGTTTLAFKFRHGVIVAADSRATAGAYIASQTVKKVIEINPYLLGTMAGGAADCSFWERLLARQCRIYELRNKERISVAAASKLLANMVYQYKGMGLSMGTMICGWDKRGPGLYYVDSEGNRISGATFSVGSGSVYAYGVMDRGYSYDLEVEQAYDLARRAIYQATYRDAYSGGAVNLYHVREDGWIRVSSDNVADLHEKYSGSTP

[2] = biological target: T2, Proteasome subunit beta type-8 (Homo sapiens, UniProt P28062); test: IC50 Determination
T2 sequence (P28062 whole entry): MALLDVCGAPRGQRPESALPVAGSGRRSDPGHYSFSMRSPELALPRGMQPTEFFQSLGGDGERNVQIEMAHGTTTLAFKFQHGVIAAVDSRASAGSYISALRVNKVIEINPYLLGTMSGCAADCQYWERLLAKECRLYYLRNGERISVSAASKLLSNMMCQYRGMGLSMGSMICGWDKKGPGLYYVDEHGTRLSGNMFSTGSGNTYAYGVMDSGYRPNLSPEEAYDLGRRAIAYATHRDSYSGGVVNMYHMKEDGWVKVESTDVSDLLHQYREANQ

SMILES	IC50 [1] [µM]	IC50 [2] [µM]
CC(=O)N[C@H]1Cc2cccc(c2)Oc2ccc(cc2)C[C@@H](C(=O)NCc2ccccc2F)NC(=O)[C@H](CC(=O)N2CCC[C@@H]2c2ccccc2)NC1=O [US20240043470, Compound 2-04]	30.7	9.1
CC(=O)NC1Cc2cccc(c2)Oc2ccc(cc2)CC(C(=O)NCc2ccccc2F)NC(=O)C(CC(=O)N2CCC[C@@H]2c2ccccc2)NC1=O (stereo partly specified) [US20240043470, Compound 2-05]	88.4	35.9
O=C(N[C@H]1Cc2cccc(c2)Oc2ccc(cc2)C[C@@H](C(=O)NCc2ccccc2F)NC(=O)[C@H](CC(=O)N2CCC[C@@H]2c2ccccc2)NC1=O)c1ccccc1 [US20240043470, Compound 2-06]	–	19.3
O=C(NC1Cc2cccc(c2)Oc2ccc(cc2)CC(C(=O)NCc2ccccc2F)NC(=O)C(CC(=O)N2CCC[C@@H]2c2ccccc2)NC1=O)c1ccccc1 (stereo partly specified) [US20240043470, Compound 2-07]	> 100	26.8
CC(=O)N[C@H]1CCCCOc2cccc(c2)C[C@@H](C(=O)NCC(F)(F)F)NC(=O)[C@H](CCc2ccccc2)NC1=O [US20240043470, Compound 3-03]	11.9	–
O=C1CCc2cccc(c2)OCCCC[C@@H](C(=O)NCc2ccccc2F)NC(=O)[C@H](CC(=O)N2CCC[C@@H]2c2ccccc2)N1 [US20240043470, Compound 3-18]	44.3	3
O=C1N[C@@H](CC(=O)N2CCCC2)C(=O)N[C@H](C(=O)NCc2cccc3ccccc23)CCCCCCCCC[C@H]1Cc1ccccc1 [US20240043470, Compound 4-03]	–	3.52
